From patent US12630532B2, “Indole-substituted quinolines and their combination with Plk1 inhibitors for the treatment of cancer” (UNIVERSITY OF KENTUCKY RESEARCH FOUNDATION, priority 2021, dated 2026)

Tested on: LS174T cells
Assay: Cell proliferation inhibition assay (5 days, cell counting)
Assay type: cell-based
Conditions: Homo sapiens, LS174T; read-out: Inhibition % on LS174T cells Proliferation 0.3 uM Inhib. %
Method: Cell proliferation inhibition assays were done following a previous report (32). Cancer cells were seeded into 24-well plates at a density of 20,000 cells per well in 1 mL of culture medium and were cultured overnight at 37° C. Compounds and the vehicle control (DMSO) were added to the cells. After 5 days, the medium was removed, and 100 μL of trypsin was added. The cells were resuspended in phosphate-buffered saline (PBS) and were counted by Vi-CELL XR 2.03 (Beckman Coulter, Inc. USA). The ratio R of the number of viable cells in the compound treatment group to the number of viable cells in DMSO treatment group was taken as relative growth, and the percentage growth inhibition was calculated as (1−R)*100.

Question: For `CN(C)c1ccc2cc(-c3coc4ccccc34)c(N)nc2c1` [VMS-7-7], which inhibition at 0.3 µM is on record?
Answer: 87.2%

Same assay, conditions: Homo sapiens, LS174T; read-out: Inhibition % on LS174T cells Proliferation 1 uM Inhib. %

Question: For `CN(C)c1ccc2cc(-c3nc(-c4ccc(Br)cc4)cs3)c(N)nc2c1` [LMK-5-66], which inhibition at 1 µM is on record?
Answer: 45%

Question: With `CN(C)c1ccc2cc(-c3nc(-c4ccccc4)cs3)c(N)nc2c1` [LMK-5-67] as the molecule, how does the inhibition at 1 µM read?
Answer: 96.9%

Question: With `COc1ccc(-c2csc(-c3cc4ccc(N(C)C)cc4nc3N)n2)cc1` [LMK-5-68] as the molecule, how does the inhibition at 1 µM read?
Answer: 24.2%

Question: Which inhibition at 1 µM does the source give for `Nc1nc2cc(N3CCOCC3)ccc2cc1-c1cc(Cl)cc(Cl)c1` [LMK-5-276] here?
Answer: 35%

Question: Which inhibition at 1 µM does the source give for `CN1CCN(c2ccc3cc(-c4cc(Cl)cc(Cl)c4)c(N)nc3c2)CC1` [LMK-5-278] here?
Answer: 27.9%

Question: For `Nc1nc2cc(N3CCCCC3)ccc2cc1-c1cc(Cl)cc(Cl)c1` [LMK-5-279], which inhibition at 1 µM is on record?
Answer: 46.6%

Question: `CN1CCN(c2ccc3cc(-c4cn(C)c5ccccc45)c(N)nc3c2)CC1` [LMK-5-282] was tested. Which inhibition at 1 µM did it give?
Answer: 25.2%

Question: With `Nc1nc2cc(N3CCOCC3)ccc2cc1-c1ccccc1F` [LMK-5-284] as the molecule, how does the inhibition at 1 µM read?
Answer: 20.6%

Question: `CN(C)c1ccc2cc(-c3coc4ccccc34)c(N)nc2c1` [VMS-7-7] was tested. Which inhibition at 1 µM did it give?
Answer: 97.8%

Same assay, conditions: Homo sapiens, LS174T; read-out: Inhibition % on LS174T cells Proliferation 3 uM Inhib. %

Question: For `CN(C)c1ccc2cc(-c3nc4ccc(F)cc4s3)c(N)nc2c1` [LMK-5-52], which inhibition at 3 µM is on record?
Answer: 97%

Question: `CN(C)c1ccc2cc(-c3nc4ccc(Cl)cc4s3)c(N)nc2c1` [LMK-5-55] was tested. Which inhibition at 3 µM did it give?
Answer: 97.6%

Question: `CN(C)c1ccc2cc(-c3nc4cc(C(C)(C)C)ccc4o3)c(N)nc2c1` [LMK-5-60] was tested. Which inhibition at 3 µM did it give?
Answer: 91.5%

Question: With `COc1ccc2nc(-c3cc4ccc(N(C)C)cc4nc3N)sc2c1` [LMK-5-62] as the molecule, how does the inhibition at 3 µM read?
Answer: 85.5%

Question: With `CN(C)c1ccc2cc(-c3nc(-c4ccc(Br)cc4)cs3)c(N)nc2c1` [LMK-5-66] as the molecule, how does the inhibition at 3 µM read?
Answer: 98.9%

Question: Which inhibition at 3 µM does the source give for `CN(C)c1ccc2cc(-c3nc(-c4ccccc4)cs3)c(N)nc2c1` [LMK-5-67] here?
Answer: 99.8%

Question: For `COc1ccc(-c2csc(-c3cc4ccc(N(C)C)cc4nc3N)n2)cc1` [LMK-5-68], which inhibition at 3 µM is on record?
Answer: 94.3%

Question: `Nc1nc2cc(N3CCOCC3)ccc2cc1-c1cc(Cl)cc(Cl)c1` [LMK-5-276] was tested. Which inhibition at 3 µM did it give?
Answer: 65.2%

Question: `CN1CCN(c2ccc3cc(-c4cc(Cl)cc(Cl)c4)c(N)nc3c2)CC1` [LMK-5-278] was tested. Which inhibition at 3 µM did it give?
Answer: 87.7%

Question: How did the inhibition at 3 µM turn out when `Nc1nc2cc(N3CCCCC3)ccc2cc1-c1cc(Cl)cc(Cl)c1` [LMK-5-279] was run?
Answer: 87.6%

Question: For `CN1CCN(c2ccc3cc(-c4cn(C)c5ccccc45)c(N)nc3c2)CC1` [LMK-5-282], which inhibition at 3 µM is on record?
Answer: 83.7%

Question: For `Nc1nc2cc(N3CCOCC3)ccc2cc1-c1ccccc1F` [LMK-5-284], which inhibition at 3 µM is on record?
Answer: 85.6%

Question: For `CN(C)c1ccc2cc(-c3cc(Cl)cc(Cl)c3)c(N)nc2c1` [VMS-4-103], which inhibition at 3 µM is on record?
Answer: 86.4%

Question: Which inhibition at 3 µM does the source give for `CN(C)c1ccc2cc(-c3nc4ccccc4s3)c(N)nc2c1` [VMS-7-1] here?
Answer: 95.3%

Question: For `CN(C)c1ccc2cc(-c3csc4ccccc34)c(N)nc2c1` [VMS-7-3], which inhibition at 3 µM is on record?
Answer: 96.7%

Question: `CN(C)c1ccc2cc(-c3coc4ccccc34)c(N)nc2c1` [VMS-7-7] was tested. Which inhibition at 3 µM did it give?
Answer: 96.8%

Question: `COc1ccc2c(c1)c(-c1cc3ccc(N(C)C)cc3nc1N)cn2C` [VMS-7-29] was tested. Which inhibition at 3 µM did it give?
Answer: 99.3%

Question: With `CNc1ccc2cc(-c3cc(Cl)cc(Cl)c3)c(N)nc2c1` [VMS-8-65] as the molecule, how does the inhibition at 3 µM read?
Answer: 97.2%

Question: With `CNc1ccc2cc(-c3cn(C)c4ccccc34)c(N)nc2c1` [VMS-8-67] as the molecule, how does the inhibition at 3 µM read?
Answer: 96.9%
